The values that follow come from patent US20220184091A1, “Methods of Treating Cancer with Chk1 Inhibitors” (Sierra Oncology, Inc., priority 2019, published 2022).

What is called TGI is how far tumour growth fell short of that in controls.

Series [1] can be described thus: Excretion of SRA737 in mice. Type of series: in vivo, mouse. As to conditions: 24-hour collection. How it is done: The excretion of SRA737 has been studied in mice and rats administered SRA737 at either 5 mg/kg IV or 10 mg/kg orally. Urine and feces were collected for a 24-hour period after dosing. In mice, renal excretion of intact SRA737 was consistently low (less than 10% of dose) after both oral and IV administration. Following IV administration of SRA737, less than 8% of the dose was recovered as intact drug in the feces while after oral administration this figure was less than 3%. Excretion of intact SRA737 was lower in the rat than in the mouse with <1% of dose excreted renally over 24 hours and less than 1.5% of dose excreted into the feces over 24 hours.

The subject of another series is H69. Nature of the series: Micronuclei assay, H69. The following applies: 1 μM, 24 hours or 48 hours. Type of series: cell-based, human. How it is done:
H69 cells were cultured as discussed earlier and treated with or without SRA737 (1 μM). Cytochalasin B was added at 20th hour to each culture to give a final concentration of 3 μg/ml and the culture was incubated at 37° C. for up to 24 hrs. After 24 hrs incubation, the cells were centrifuged at 1000 rpm for 5 min. The supernatant was removed and the pellet was treated with weak hypotonic solution (0.075 M KCl/0.9% Saline, 1:9) and incubated at 37° C. for 5 min. After this, the cells were centrifuged and the pellets were fixed in fresh fixative (methanol:acetic acid, 3:1). Cells were dropped onto glass slides were prepared and stained with ProLong® Gold Antifade Mountant with DAPI. In the case of EMT-6 cells, micronuclei formation assays were performed at Phenovista Biosciences, San Diego. The cells were treated with either 1 μM or 5 μM SRA737 for 24h followed by mixing with 4% PFA for 20 minutes at RT directly in the culture wells, washing with PBS and staining with Hoechst (1:1000). The plates were imaged at 40× using the Thermo Fisher Scientific CellInsight CX7 imaging system and the micronuclei algorithm was adjusted to score all nuclei that are <55% of the size of the main nucleus. A total of 25 fields per well were imaged and the data was averaged across 8 replicates.
SRA737 was also evaluated for induced cytogenetic stress using a micronuclei (MN) assay.

The test system of another series is STING pathway. The experiment in a line: Western blot of STING pathway markers in SCLC cell lines. Type of series: cell-based. The following applies: H1694 and H847 cell lines; 1 μM; 24 and 72 hours. The protocol:
Western blot analysis was performed using SDS-PAGE followed by transfer to nitrocellulose membrane using the BioRad Gel system. Membranes were incubated in the following primary antibodies (1:1000) overnight: PD-L1 (CST), total and phospho- (S366) STING (CST), total and phospho- (S396) IRF3 (CST), phospho-YH2AX (CST) and Actin (Sigma). Secondary anti-rabbit, HRP-linked antibodies were purchased from Cell Signaling Biosciences and detected using the Chemidoc imaging system mage-captured with Image Studio Version 3.1 software.
(Immunoblotting shows a protein as a band on a membrane.)

The next series has as its system IFNβ, CXCL10 and CCL5. The experiment in a line: qPCR of IFNβ, CXCL10 and CCL5 in resected RPP tumors. Type of series: in vivo, mouse. The protocol:
Data presented as mean±SD and p values by t-test * p<0.05, **p<0.01, ***p<0.001.
Real-time PCR was done using SYBR Select Master Mix (Life Technologies, cat #4472908) according to the manufacturer's protocol. Primers were purchased from Sigma Aldrich, Inc. Triplicate PCR reactions were run on ABI (7500 Fast Real Time PCR System). The comparative Ct method using the average 2ΔΔCT value for each set of triplicates was used, and the average of the biological replicates was calculated. Negative controls were included for every primer set, and GAPDH was used as the […].
(In general: In qPCR the cycle at which signal appears reflects the starting amount.)

A further series has as its system MBT-2. Nature of the series: MBT-2 bladder flank tumor growth in immunocompetent mice. Type of series: in vivo, mouse. The following applies: SRA737 100 mg/kg 5-days-on/2-days-off p.o., anti-PD1 BIW 10 mg/kg i.p. The protocol: (§1) Tumors were evaluated twice weekly for the duration of the study. Tumor volumes were measured on all mice three times per week and calculated (width^2×length×0.4) using manual calipers. Once the average tumor size was in the range of 120-150 mm^3, mice were randomized into dosing groups using stratified sampling by assigning three animals per group for short-term reverse-phase protein array analysis and long-term treatment. Dosing schedules and duration varied depending on the study. Mice were weighed three times per week for the duration of the study, and a decrease in body weight >15% was considered indicative of a toxic dose. The Student t-test was used to determine statistical significance between compound- and vehicle-treated groups.
(§2) Tumors cells were implanted into the flank of immunocompetent mice. Once the volumes of the tumor reached 150-200 mm^3, the mice were randomized and treated with either monotherapy of SRA737 at 100 mg/kg for 5-days-on/2-days-off p.o., anti-PD1 BIW at 10 mg/kg i.p. or the combination thereof.

The subject of a further series is Pan02. The experiment in a line: Pan02 pancreatic flank tumor growth in immunocompetent mice. Type of series: in vivo, mouse. The following applies: SRA737 100 mg/kg 5-days-on/2-days-off p.o., anti-PD1 BIW 10 mg/kg i.p. The protocol: as §1, §2

As for `N#Cc1cnc(Nc2cc(NCC3CNCCO3)c(C(F)(F)F)cn2)cn1` (centres unmarked) [SRA737, 5-[[4-[[morpholin-2-yl]methylamino]-5-(trifluoromethyl)-2-pyridyl]amino]pyrazine-2-carbonitrile], the “dose recovered as intact drug in the feces” value is given as “less than 8 % of dose” in series [1] (IV administration) and “less than 3 % of dose” in series [1] (oral administration). For the same compound, the micronuclei formation entry in the series on H69 is reported as “led to micronuclei formation”. Also, the “STING pathway (pSTING_S366, STING, pIRF3_S396 and IRF3)” value with STING pathway is “Activation of the STING pathway”. The “gene expression levels of IFNβ, CXCL10 and CCL5 vs vehicle” value in the series on IFNβ, CXCL10 and CCL5 (RPP tumors at Day 21, 100 mg/kg 5-days-on/2-days-off) is reported as “higher gene expression levels”. The “expression of IFNβ, CCL5 and CXCL10” value in the series on IFNβ, CXCL10 and CCL5 (RPP tumors resected at Day 21, SRA737 2-days-on/5-days-off) was “Neither LDG nor SRA737 monotherapy (2-days-on/5-days-off) showed any significant effect”. In addition, the TGI with MBT-2 was determined as 53%; in the series on Pan02, 59%.
